Experimental findings from PMC12305296, “Repurposing of FDA‐Approved Drugs to Disrupt Iron Uptake in Mycobacterium abscessus: Targeting Salicylate Synthase as a Novel Approach” (Chemical Biology & Drug Design, 2025) are described below.

In brackets after ≈: the same amount, converted by molar mass.

For assay [1], the target named is T1, recombinant Mab‐SaS (Mycobacteroides abscessus, UniProt B1MAQ5). Briefly: Mab‐SaS enzyme inhibition, direct fluorometric assay. Conditions: for remaining activity at 100 µM: read-out: residual activity at 100 μM (%); for Ki: steady‐state kinetics, competitive inhibition equation; for mode of inhibition towards CHO: reciprocal plots of steady‐state kinetics; for inhibition at 100 µM: read-out: inhibition of Mab‐SaS at 100 μM. The assay is classed as biochemical, Mycobacterium abscessus. As to the method:
The recombinant Mab‐SaS was expressed in E. coli and purified as previously reported (Mori et al. [2023]). Enzyme activity was determined by a direct fluorometric assay (Mori et al. [2020]). Briefly, the assays were performed in 400 μL of 50 mM potassium phosphate pH 8.0, containing 5 mM MgCl2, and 1–2 μM Mab‐SaS. The reaction was started by the addition of CHO and monitored using a PerkinElmer LS3 fluorimeter (Ex. λ = 305 nm, Em. λ = 410 nm; PerkinElmer, Waltham, MA, USA).
The compounds identified by the in silico investigations were purchased from CymitQuimica S.L. and dissolved at a concentration of 20 mM in dimethylsulfoxide (DMSO) or water, according to their solubility. Specifically, gentamycin, cytidine, amifostine, and hydroxystilbamidine were dissolved in water, while esomeprazole, fostamatinib, S‐adenosyl‐L‐homocysteine, norepinephrine, labetalol, levolansoprazole, and nebivolol were dissolved in DMSO.
The inhibitory activity of the candidates was initially evaluated at a final concentration of 100 μM, using a subsaturating concentration of the substrate (CHO) of 70 μM. […] IC50 was calculated by measuring enzymatic activity in the presence of different compound concentrations, using (Equation 1), where A[I] is the enzyme activity at inhibitor concentration [I] and A[0] is the enzyme activity without inhibitor. (1) AI=A0×1−I/I+IC50
The inhibition constant values (K i) were determined by assaying Mab‐SaS at different substrate and compound concentrations and using an adapted equation for competitive inhibition (Equation 2) with GraphPad 8.0 software. (2) v=VmaxS/S+Km1+I/Ki

Assay [2] has as its target T1, recombinant Mab‐SaS. As to the kind of experiment: PAINS control assays (BSA, Triton X‐100, DTT) on Mab‐SaS inhibition. The assay is classed as biochemical, Mycobacterium abscessus. Conditions: for inhibition in presence of BSA and Triton X‐100 (aggregation check): 0.1 mg/mL BSA or 0.01% (v/v) Triton X‐100; for effect of DTT on inhibition (cysteine reactivity check): 100 mM DTT.

In another assay the test system is M. smegmatis mc^2155. Briefly: REMA antimycobacterial assay in iron‐limiting chelated Sauton's medium. Conditions: Mycolicibacterium smegmatis, iron‐limiting conditions. The assay is classed as cell-based. As to the method: Antimycobacterial activity of the best compounds was evaluated by REMA assay in iron‐limiting chelated Sauton's medium on M. smegmatis MC^2 155 (Siegrist et al. [2009]; Mehra and Philips [2014]). This microorganism is widely used as a non‐pathogenic model for Mab, since it shares similar biological characteristics and replicates more rapidly than other mycobacteria. By using this non‐pathogenic microorganism, we could efficiently study processes related to Mab, while minimizing the hazards and technical difficulties of working directly with a pathogenic strain.

T1 sequence (B1MAQ5 entry or part of it): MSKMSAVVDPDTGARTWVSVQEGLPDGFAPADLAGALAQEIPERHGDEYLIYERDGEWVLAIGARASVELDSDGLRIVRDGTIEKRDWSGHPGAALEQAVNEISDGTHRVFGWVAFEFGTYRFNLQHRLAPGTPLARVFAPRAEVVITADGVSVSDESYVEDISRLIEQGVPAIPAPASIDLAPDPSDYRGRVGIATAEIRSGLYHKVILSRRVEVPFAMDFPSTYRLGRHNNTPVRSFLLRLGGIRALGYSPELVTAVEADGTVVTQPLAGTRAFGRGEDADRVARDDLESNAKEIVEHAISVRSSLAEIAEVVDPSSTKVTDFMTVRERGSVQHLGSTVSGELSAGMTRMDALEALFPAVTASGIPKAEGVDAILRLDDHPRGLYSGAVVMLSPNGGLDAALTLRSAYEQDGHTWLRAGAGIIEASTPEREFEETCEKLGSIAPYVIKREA

For `CNC(C)C1CCC(N)C(OC2C(N)CC(N)C(OC3OCC(C)(O)C(NC)C3O)C2O)O1` (stereo not shown) [Gentamycin], the “inhibition of Mab‐SaS at 100 μM” value on recombinant Mab‐SaS [1] (100 μM compound, 70 μM CHO) is on record as “did not exhibit any inhibitory effect”. Also, on recombinant Mab‐SaS [1], the remaining activity at 100 µM is 98.8 ± 5.7%.

`NCCCNCCSP(=O)(O)O` [Amifostine]: the remaining activity at 100 µM at recombinant Mab‐SaS [1] was 78.1 ± 3.2%.

The term IC50 denotes the concentration that gives 50% inhibition. The residual activity is the signal under treatment as a percentage of the control signal. What is called Ki is a dissociation constant, usually derived from enzyme kinetics or from competition with a known ligand. `COc1cc(Nc2ncc(F)c(Nc3ccc4c(n3)N(COP(=O)(O)O)C(=O)C(C)(C)O4)n2)cc(OC)c1OC` [Fostamatinib]: at recombinant Mab‐SaS [1], the IC50 amounted to 21 ± 1.3 µM, the Ki was found to be 11.7 ± 0.7 µM and the “mode of inhibition towards CHO” value is reported as “competitive”. The “inhibition of Mab‐SaS at 100 μM” value at recombinant Mab‐SaS [1] (100 μM compound, 70 μM CHO) is on record as “completely blocked the enzymatic activity”. At recombinant Mab‐SaS [1] (100 μM compound, 70 μM CHO, Mean ± SD of three experiments), the “residual activity at 100 μM (%)” value was determined as 11.6 ± 0.7%. In addition, at recombinant Mab‐SaS [2], the “inhibition in presence of BSA and Triton X‐100 (aggregation check)” value (shortened to “inhibition in presence”) is “inhibited the enzyme”; the “effect of DTT on inhibition (cysteine reactivity check)” value (“effect of DTT on inhibition” below) was “no impact on the inhibition”.

For `Nc1ncnc2c1ncn2[C@@H]1O[C@H](CSCC[C@H](N)C(=O)O)[C@@H](O)[C@H]1O` [S‐adenosyl‐L‐homocysteine], on recombinant Mab‐SaS [1], the remaining activity at 100 µM is 102 ± 3.8%.

Regarding `COc1ccc2nc([S@@+]([O-])Cc3ncc(C)c(OC)c3C)[nH]c2c1` [Esomeprazole], on recombinant Mab‐SaS [1], the IC50 stood at 13.6 ± 1.1 µM, the Ki was found to be 3.7 ± 0.4 µM, the remaining activity at 100 µM is 3.3 ± 1.7% and the “mode of inhibition towards CHO” value is given as “competitive”. Also, the “inhibition of Mab‐SaS at 100 μM” value on recombinant Mab‐SaS [1] (100 μM compound, 70 μM CHO) is on record as “completely blocked the enzymatic activity”. For the same compound, on recombinant Mab‐SaS [2], the “inhibition in presence” value was “inhibited the enzyme”; the “effect of DTT on inhibition” value is “no impact on the inhibition”.

As a reminder, the inhibition is the drop in the measured response relative to a control, in per cent. As for `NC[C@H](O)c1ccc(O)c(O)c1` [Norepinephrine], at recombinant Mab‐SaS [1], the inhibition at 100 µM was approximately 24% and the remaining activity at 100 µM was 75.5 ± 1.4%.

Consider `CC(CCc1ccccc1)NCC(O)c1ccc(O)c(C(N)=O)c1` (stereo not shown) [Labetalol], for which, on recombinant Mab‐SaS [1], the inhibition at 100 µM was approximately 53% and the remaining activity at 100 µM is 47 ± 2.1%.

In the case of `Nc1ccn([C@@H]2O[C@H](CO)[C@@H](O)[C@H]2O)c(=O)n1` [Cytidine], the remaining activity at 100 µM on recombinant Mab‐SaS [1] was 88.8 ± 2.5%.

On to `OC(CNCC(O)C1CCc2cc(F)ccc2O1)C1CCc2cc(F)ccc2O1` (stereo not shown) [Nebivolol], for which, on recombinant Mab‐SaS [1], the remaining activity at 100 µM was found to be 82.3 ± 1.3%.

One may read the MIC as the smallest concentration in the dilution series that meets the test's criterion for growth inhibition. The low end stands for inhibition by little substance, the high end for a need for much substance. On to `N=C(N)c1ccc(/C=C/c2ccc(C(=N)N)cc2O)cc1` [Hydroxystilbamidine], for which, in the assay with M. smegmatis mc^2155, 250 µM (≈ 70.1 µg/mL) was the least that counted as inhibitory (MIC). In addition, on recombinant Mab‐SaS [1], the IC50 is 11.5 ± 1.1 µM, the Ki worked out at 5.4 ± 0.5 µM, the remaining activity at 100 µM amounted to 0.5 ± 0.3% and the “mode of inhibition towards CHO” value is “competitive”. Also, at recombinant Mab‐SaS [1] (100 μM compound, 70 μM CHO), the “inhibition of Mab‐SaS at 100 μM” value is recorded as “completely blocked the enzymatic activity”. On recombinant Mab‐SaS [2], the “inhibition in presence” value is reported as “inhibited the enzyme”; the “effect of DTT on inhibition” value is recorded as “no impact on the inhibition”.

For the compound `Cc1c(OCC(F)(F)F)ccnc1C[S@+]([O-])c1nc2ccccc2[nH]1` [Levolansoprazole], on recombinant Mab‐SaS [1], the inhibition at 100 µM is approximately 37% and the remaining activity at 100 µM was 62.8 ± 1.7%.
